Measurements published in publication PMC8776337, “Peptides Derived from Vascular Endothelial Growth Factor B Show Potent Binding to Neuropilin‐1” (Chembiochem, 2021).
Where “and” joins values, the source holds several entries; their conditions need not be identical. Identical values can stand only once. Like-named read-outs stand apart in the source and are kept apart here. Positions of bridges follow the written chain, without caps; N, C: chain ends. Residues, ends and D or L forms follow the SMILES beside them. No end group written: not given here. *: point of attachment. Palmitoyl = CCCCCCCCCCCCCCCC(=O)*; Hpt = not defined here

T1: NRP1‐b1 (Homo sapiens, UniProt O14786)
T1 construct: the immobilized b1 domain of NRP1 (NRP1‐b1); poly-histidine (TEV-cleavable) (cleaved yes); made in house; host or cells: E. coli Rosetta (DE3)
T1 sequence (O14786 275-424 limits assumed): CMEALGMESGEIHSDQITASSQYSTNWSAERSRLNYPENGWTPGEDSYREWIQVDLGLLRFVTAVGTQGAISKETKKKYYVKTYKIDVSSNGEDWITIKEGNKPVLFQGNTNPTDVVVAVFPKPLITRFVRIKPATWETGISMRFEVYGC

T2: b1 domain of neuropilin‐1 (NRP1‐b1) (human, UniProt O14786 273-427)
T2 construct: neuropilin-1, human, b1 domain; also called NRP1‐b1 domain; NRP1 b1 domain; source: E. coli Rosetta (DE3), purified (HisTrap, TEV cleavage, Superdex 75, SP FF ion exchange)
T2 sequence: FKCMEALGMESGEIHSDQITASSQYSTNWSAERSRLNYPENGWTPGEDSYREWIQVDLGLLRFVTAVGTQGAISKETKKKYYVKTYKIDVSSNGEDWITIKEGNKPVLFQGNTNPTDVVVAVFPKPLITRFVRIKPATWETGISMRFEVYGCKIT


Tests used:
[1] = biological target: T1, NRP1‐b1; assay: SPR binding of peptides to immobilised NRP1-b1; settings: for Receptor occupancy: immobilised NRP1-b1
From the text: We then designed four additional peptides with added lipid chains (Figures 3 and 4). We investigated the effect of lipidation on the N‐terminus (MGC0171 and MGC0174) and on the side chain of a lysine in close proximity to the C‐terminus (MGC0172 and MGC0173) as shown (Figure 5). For the SPR analysis of the lipidated peptides we fitted data to a two‐state reaction model to account for the nonspecific binding of the palmitoyl side chains. Since the model assumes two binding events it provides two association (k a) and dissociation (k d) rates, and the overall equilibrium dissociation constant is calculated using the equation: KD=KD1(1+KD2), in which KD1 and KD2 are obtained as […]. The inverse of the dissociation rate corresponds to the residence time. […] The lipidated peptides were also tested for inhibition of VEGF‐A165 binding to NRP1 in a cell‐based assay (Figure 8).
Surface plasmon resonance: SPR measurements were performed using either Biacore T200 or Biacore 4000 at a constant temperature of 25 °C. All sensor chips, stock buffers, and immobilisation reagents were purchased from GE Healthcare/Cytvia and were prepared according to the manufacturer's instructions.
Chip preparation: PBS containing 0.05 % surfactant P20 was used as the running buffer during immobilisation. Proteins were immobilised onto a CM5 chip using random amine coupling following a standard procedure using the conditions specified in Table 2. A flow cell upstream of the treated flow cell was used as a reference which allowed removal of non‐specific binding to the chip.
Kinetic measurements of peptides: Peptides were injected over immobilized NRP1‐b1 for 60 s, followed by 120 or 180 s dissociation. The surface was regenerated with 1 M NaCl between injections. The SPR response curves were fit to a binding model to obtain association (ka ) and dissociation (kd ) rates which were then converted into equilibrium dissociation constant (KD ) and residence time. For a 1 : 1 binding model […] and for a two‐state binding model KD=K1(1+K2). Residence time was calculated as 1/kd .

[2] = biological target: T3, bt‐VEGF‐A165 binding to NRP1 in HUVEC cells (Homo sapiens, UniProt O14786); assay: Cell based binding assay, inhibition of bt-VEGF-A165 binding to NRP1; settings: for IC50: 4 °C, 2 h, streptavidin-horseradish peroxidase detection; for HS (of the inhibition curve of bt‐VEGF‐A165 binding to NRP1): HUVEC cells
T3 construct: expressed in transfected cells
T3 sequence (O14786 22-923): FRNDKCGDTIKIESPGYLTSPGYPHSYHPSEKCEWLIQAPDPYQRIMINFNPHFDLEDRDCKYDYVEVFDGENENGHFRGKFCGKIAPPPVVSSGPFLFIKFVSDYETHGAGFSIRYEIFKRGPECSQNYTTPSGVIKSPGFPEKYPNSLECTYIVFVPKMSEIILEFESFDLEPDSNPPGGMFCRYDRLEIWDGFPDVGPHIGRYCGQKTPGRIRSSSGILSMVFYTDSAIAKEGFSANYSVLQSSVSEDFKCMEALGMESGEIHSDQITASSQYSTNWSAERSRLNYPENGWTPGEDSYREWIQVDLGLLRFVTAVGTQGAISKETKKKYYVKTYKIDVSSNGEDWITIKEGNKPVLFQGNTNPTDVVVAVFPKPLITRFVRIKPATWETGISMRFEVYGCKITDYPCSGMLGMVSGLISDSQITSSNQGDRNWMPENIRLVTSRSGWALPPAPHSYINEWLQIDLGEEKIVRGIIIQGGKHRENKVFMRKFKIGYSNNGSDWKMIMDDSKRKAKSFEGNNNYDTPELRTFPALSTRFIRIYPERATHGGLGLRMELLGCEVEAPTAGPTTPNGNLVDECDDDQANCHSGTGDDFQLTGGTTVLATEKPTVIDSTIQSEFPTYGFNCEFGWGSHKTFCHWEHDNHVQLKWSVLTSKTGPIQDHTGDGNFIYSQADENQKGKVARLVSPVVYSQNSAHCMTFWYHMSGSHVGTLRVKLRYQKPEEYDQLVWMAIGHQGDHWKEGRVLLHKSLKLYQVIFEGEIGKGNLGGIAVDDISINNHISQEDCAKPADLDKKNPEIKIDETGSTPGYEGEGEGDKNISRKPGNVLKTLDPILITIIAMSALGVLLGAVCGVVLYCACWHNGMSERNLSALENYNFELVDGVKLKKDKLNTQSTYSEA
Procedure: A) N‐terminal palmitoyl VEGF‐B167 derived peptide MGC0174. B) Lysine palmitoyl peptide MGC0173. C) N‐terminal palmitoyl VEGF‐A165 derived peptide MGC0171. D) Lysine VEGF‐A165 palmitoyl peptide MGC0172.
Cell based binding assay for bt‐VEGF binding to NRP1‐b1: A flat‐bottomed 96 well plate was coated with 100 μL 10 μg/mL Poly‐D‐lysine (110 μL in 10890 μL PBS) and incubated for 1 hour at R.T. DU145 cells were seeded at a concentration of 20,000 DU145 cells/well in DMEM with 10 % FBS and incubated for 4 hours. Cells were then infected with 0.3 μL per well of adenovirus expressing NRP1 (stock at 1×1012 vp/mL) and incubated for 40 hours. The media was removed followed by washing cells twice in 200 μL of PBS per well. The plate was placed on ice and 50 μL of binding medium was added per well for total binding. Next, 50 μL of 100‐fold excess (100×btVEGF‐A165) of unlabelled‐VEGF (diluted in binding medium) was added per well for non‐specific binding. Peptides (50 μL) at the indicated concentrations were diluted in binding medium and added to specified wells. bt‐VEGF (50 μL of 4 nM; diluted in binding medium) was added per well for both total and non‐specific binding and samples. The plate was incubated at 4 °C for 2 hours. The plate was then placed on ice and the medium was removed followed by gently washing the cells 3 times in 200 μL of PBS per well.
Streptavidin‐horseradish peroxidase (100 μL; dilute to the working concentration specified on the vial label using PBS+1 % BSA=1 : 200) was added to each well. The plate was sealed and incubated for 30 minutes at room temperature. Three more washes with 200 μL PBS were done. Then, 100 μL of substrate solution was added to each well (protected from light). Colour Reagent A and B were mixed together in equal volumes within 15 minutes of use. The plate was sealed and incubated for 20 minutes at room temperature. Stop solution (50 μL) was added to each well ensuring even mixing. The plate was read using Tecan Genios plate reader using a 450 nm cut‐off filter and also with a reference 595 nm cut‐off filter. Nonspecific binding was determined in the absence of NP‐1 coated on the microplate.

[3] = Peptide stability in mouse plasma; format: in vitro ADME; settings: mouse plasma pH 7.4, 37 °C, LC-MS/MS, triplicate (n=1); for Stability in mouse plasma (in words): 10 μM, 0.24 % DMSO, 0, 5, 15, 30, 60, 120 min
Procedure: Figure 9 Stability of VEGF‐B167 lipidated peptides in mouse plasma determined by MSMS analysis. The stability of the peptides is shown relative to the control eucatropine. Samples were analysed in triplicate (n=1).
Peptide stability in mouse plasma: Mouse plasma stability tests were performed by Cyprotex. In brief, peptides were incubated with mouse plasma (adjusted for pH 7.4, 37 °C) to a final concentration of 10 μM and incubation volume of 500 μL (0.24 % DMSO). After the incubation period (0, 5, 15, 30, 60, and 120 min), the reactions were stopped by transferring 50 μL of incubate to 150 μL acetonitrile containing internal standard. Plasma proteins were precipitated out by centrifuging at 3,000 rpm for 45 min at 4 °C. The supernatant was diluted 1 : 1 with water and analysed by LC‐MS/MS.

[4] = biological target: T2, b1 domain of neuropilin‐1 (NRP1‐b1); assay: SPR; NRP1-b1 immobilised on a CM5 chip by random amine coupling; peptides injected for 60 s, 120 or 180 s dissociation; 25 °C; regeneration with 1 M NaCl; kinetic fit, 1:1 model (MGC0122, MGC0123, MGC0124) or two-state model (MGC0171, MGC0172, MGC0173, MGC0174); settings: both partners purified
[5] = SPR, immobilised NRP1-b1, 25 °C, two-state model, lipidated peptides, read-out: Second residence time calculated from two‐state model (converted)
[6] = read-out: Residence time (1/kd)
[7] = IC50, cell‐based activity (HUVECs), inhibition of bt‐VEGF‐A165 binding to NRP1, bt-VEGF-A165 4 nM

| Molecule | Receptor occupancy ([1]; SPR) | residence time [1, 5] | HS (of the inhibition curve of bt‐VEGF‐A165 binding to NRP1) ([2]; bt-VEGF-A165 4 nM) | Kd [1] | residence time [1, 6] | Stability in mouse plasma (in words) [3] | IC50 [2, 7] | Kd [4] | other results |
| --- | --- | --- | --- | --- | --- | --- | --- | --- | --- |
| CCCCCCCCCCCCCCCC(=O)NCCCC[C@H](NC(=O)[C@H](CC(=O)O)NC(=O)[C@@H]1CSSC[C@@H]2NC(=O)[C@H](CCCNC(=N)N)NC(=O)[C@H](CO)NC(=O)[C@H](CC(=O)O)NC(=O)[C@H]([C@@H](C)O)NC(=O)[C@H](CC(N)=O)NC(=O)[C@H](CCCCN)NC(=O)[C@@H](NC(=O)[C@H](CO)NC(C)=O)CSSC[C@H](NC(=O)[C@H]([C@@H](C)O)NC(=O)[C@H](CCCNC(=N)N)NC(=O)[C@H](CCC(=O)O)NC(=O)[C@H](CC(N)=O)NC(=O)[C@H](CC(C)C)NC(=O)[C@H](CCC(=O)O)NC(=O)[C@H](CC(C)C)NC(=O)[C@H](CCC(N)=O)NC(=O)[C@H](CCCNC(=N)N)NC(=O)[C@H](C)NC(=O)[C@H](CCCCN)NC2=O)C(=O)N[C@@H](CCCNC(=N)N)C(=O)N1)C(=O)N1CCC[C@H]1C(=O)N[C@@H](CCCNC(=N)N)C(=O)N[C@@H](CCCNC(=N)N)C(=O)O [MGC0172] (Ac-SCKNTDSRCKARQLELNERTCRCDK(Palmitoyl)PRR-OH; disulfide 2-21, 9-23) | 22±1% | 1.99 min | 1.9 |  |  |  |  |  | residence time ([1]; SPR, immobilised NRP1-b1, 25 °C, 1:1 model, or first residence time of the two-state model, read-out: Residence time (1/kd) (converted)): 0.123 min; Kd ([1]; SPR, peptide injected 60 s over NRP1-b1 immobilised on CM5 chip, 25 °C, 1:1 model for MGC0122/0123/0124, two-state model for lipidated peptides, read-out: KD, SPR binding to NRP1‐b1): 1220 ± 250 nM; IC50 ([2]; bt-VEGF-A165 4 nM, read-out: IC50, cell‐based activity (HUVECs), inhibition of bt‐VEGF‐A165 binding to NRP1): 10400 nM |
| CCCCCCCCCCCCCCCC(=O)NCCCC[C@H](NC(=O)[C@H](CCCNC(=N)N)NC(=O)[C@@H]1CSSC[C@@H]2NC(=O)[C@H](CCCNC(=N)N)NC(=O)[C@H](CC(C)C)NC(=O)[C@H](Cc3ccccc3)NC(=O)[C@H](CO)NC(=O)[C@H](CCCNC(=N)N)NC(=O)[C@H](CCCNC(=N)N)NC(=O)[C@H](CCCNC(=N)N)NC(=O)[C@@H](NC(=O)[C@H](CCCNC(=N)N)NC(C)=O)CSSC[C@H](NC(=O)[C@H]([C@@H](C)O)NC(=O)[C@H](CC(=O)O)NC(=O)[C@@H]3CCCN3C(=O)[C@H](CC(N)=O)NC(=O)[C@H](CC(C)C)NC(=O)[C@H](CCC(=O)O)NC(=O)[C@H](CC(C)C)NC(=O)CNC(=O)[C@H](CCCNC(=N)N)NC(=O)CNC(=O)[C@H](CCC(N)=O)NC2=O)C(=O)N[C@@H](CCCNC(=N)N)C(=O)N1)C(=O)N[C@@H](CC(C)C)C(=O)N[C@@H](CCCNC(=N)N)C(=O)N[C@@H](CCCNC(=N)N)C(=O)O [MGC0173] (Ac-RCRRRSFLRCQGRGLELNPDTCRCRK(Palmitoyl)LRR-OH; disulfide 2-22, 10-24) | 10±1% | 2.69 min | 1.8 | 130 ± 30 nM | 0.0767 min | maintained much better levels throughout the course of the experiment | 2000 nM |  | half-life at 10 μM ([3]; 0.24 % DMSO, 0-120 min): 51 min |
| CCCCCCCCCCCCCCCC(=O)N[C@@H](CCCNC(=N)N)C(=O)N[C@H]1CSSC[C@@H]2NC(=O)[C@H]([C@@H](C)O)NC(=O)[C@H](CC(=O)O)NC(=O)[C@@H]3CCCN3C(=O)[C@H](CC(N)=O)NC(=O)[C@H](CC(C)C)NC(=O)[C@H](CCC(=O)O)NC(=O)[C@H](CC(C)C)NC(=O)CNC(=O)[C@H](CCCNC(=N)N)NC(=O)CNC(=O)[C@H](CCC(N)=O)NC(=O)[C@H](CSSC[C@@H](C(=O)N[C@@H](CCCNC(=N)N)C(=O)N[C@@H](CCCCN)C(=O)N[C@@H](CC(C)C)C(=O)N[C@@H](CCCNC(=N)N)C(=O)N[C@@H](CCCNC(=N)N)C(=O)O)NC(=O)[C@H](CCCNC(=N)N)NC2=O)NC(=O)[C@H](CCCNC(=N)N)NC(=O)[C@H](CC(C)C)NC(=O)[C@H](Cc2ccccc2)NC(=O)[C@H](CO)NC(=O)[C@H](CCCNC(=N)N)NC(=O)[C@H](CCCNC(=N)N)NC(=O)[C@H](CCCNC(=N)N)NC1=O [MGC0174] (Palmitoyl-RCRRRSFLRCQGRGLELNPDTCRCRKLRR-OH; disulfide 2-22, 10-24) | 47±3% | 4.46 min | 1.9 | 330 ± 50 nM | 0.248 min | quickly degraded to low levels after 15 min | 319 nM and 300 nM |  |  |
| CC1CC(OC(=O)C(O)c2ccccc2)CC(C)(C)N1C (stereo not drawn) [eucatropine, reference compound] |  |  |  |  |  | degraded within literature parameters |  |  |  |
| {6‑heptynoyl}-RCRRRSFLRCQGRGLELNPDTCRCRKLRR (disulfide (positions not given here); also: cyclised by disulphide, Cys pairing not given here) [MGC0123] |  |  |  |  |  |  |  | 390 ± 90 nM |  |
| Hpt-DRAATPHHRPQPR (reading uncertain; also: printed as Hpt‐DRAATPHHRPQPR, VEGF-B186, human, the C-terminal stretch of the proteolytically processed form, ending in arginine; Only the C-terminal QPR is ordered in the crystal structure; also called VEGF‐B derived peptide MGC0122; source: synthetic peptide; bought: Peptide Protein Research (PeptideSynthetics), >95 % purity by HPLC) [MGC0122] |  |  |  |  |  |  |  | 9550 ± 170 nM |  |
